Measurements taken from patent US20250375440A1, “COMPOSITION AND METHOD OF TREATING CANCER ASSOCIATED WITH EGFR MUTATION” (BEYONDSPRING PHARMACEUTICALS, INC., priority 2018, published 2025).

Test system: NCI-H1975 Human Lung Cancer Xenograft
Assay: subcutaneous NCI-H1975 Human Lung Cancer Xenograft Model in Balb/c Nude Mice, tumor size
Assay type: in vivo, Mus Musculus (Balb/c nude mice)
Settings: single agent
Procedure: The therapeutic efficacy of Osimertinib and Plinabulin were tested in vivo. The two drugs were tested as a single agent and in combination in the treatment of subcutaneous NCI-H1975 Human Lung Cancer Xenograft Model in Balb/c Nude Mice. The administration of the test articles and the animal numbers in each study group were shown in the following experimental design table 1. [table] Study endpoints: The major endpoints of the study include the followings: Tumor growth inhibition (TGI): TGI % was an indication of antitumor effectiveness, and expressed as: TGI (%)=100×(1-T/C). T and C were the mean tumor volume (or weight) of the treated and control groups, respectively, on a given day. The test uses 6-8 weeks female mice (species: Mus Musculus, Strain: Balb/c nude). The average body weight of the mice was 18-22 g. A total of 84 mice (60 plus 40% spare) were used. The animals were housed in individual ventilated cages (up to 5 mice per cage) under the following conditions: Temperature: 20˜26° C.; Humidity: 40-70%; Light cycle: 7:00 am-19:00 pm light and 19:00 pm-7:00 am (next day) darkness; Polysulfone IVC cage: size of 325 mm×210 mm×180 mm; Bedding material: corn cob; Diet: Mouse diet, Co60 irradiation sterilized dry granule food. Animals have free access during the entire study period; Water: Reverse osmosis (RO) water, autoclaved before using. […] The cells growing in an exponential growth phase were harvested and counted for tumor inoculation. […] Group assignment: Before grouping and treatment, all animals were weighed and the tumor volumes were measured using a caliper. […] During routine monitoring, the animals were checked for any effects of tumor growth and treatments on normal behavior such as mobility, visual estimation of food and water consumption, body weight gain/loss (body weights were measured twice per week), eye/hair matting and any other abnormal effect. […]

## C=CC(=O)Nc1cc(Nc2nccc(-c3cn(C)c4ccccc34)n2)c(OC)cc1N(C)CCN(C)C [osimertinib, reference compound]
Group 2, osimertinib 2.5 mg/kg p.o. QD x 5/wk
  tumor size change after tumor inoculation: control over the tumor size and slight increase in tumor size after the animals were tested for 15 days

## CC(C)(C)c1[nH]cnc1/C=c1\[nH]c(=O)/c(=C/c2ccccc2)[nH]c1=O [plinabulin, (3Z,6Z)-3-Benzylidene-6-{[5-(2-methyl-2-propanyl)-1H-imidazol-4-yl]methylene}-2,5-piperazinedione]
Group 3, plinabulin 7.5 mg/kg i.p. BIW 2 wks
  tumor size change after tumor inoculation: tumor size increases
Group 4, plinabulin 2.5 mg/kg i.p. BIW 2 wks
  tumor size change after tumor inoculation: tumor size increases
